# Measurements from publication PMC6002741 (British Journal of Pharmacology, 2018).
# Columns and labels:
# Type in all cases: cell-based
# [1] = target: T1, TRPM4 (Homo sapiens, UniProt Q8TD43)
# [2] = target: T2, TRPM5 (Homo sapiens, UniProt Q9NZQ8); assay: Excised membrane voltage clamp recordings on HEK293 cells expressing TRPM5; details: excised patches, 50 μM free Ca2+, +100 mV
# T2 sequence (Q9NZQ8 1-1165): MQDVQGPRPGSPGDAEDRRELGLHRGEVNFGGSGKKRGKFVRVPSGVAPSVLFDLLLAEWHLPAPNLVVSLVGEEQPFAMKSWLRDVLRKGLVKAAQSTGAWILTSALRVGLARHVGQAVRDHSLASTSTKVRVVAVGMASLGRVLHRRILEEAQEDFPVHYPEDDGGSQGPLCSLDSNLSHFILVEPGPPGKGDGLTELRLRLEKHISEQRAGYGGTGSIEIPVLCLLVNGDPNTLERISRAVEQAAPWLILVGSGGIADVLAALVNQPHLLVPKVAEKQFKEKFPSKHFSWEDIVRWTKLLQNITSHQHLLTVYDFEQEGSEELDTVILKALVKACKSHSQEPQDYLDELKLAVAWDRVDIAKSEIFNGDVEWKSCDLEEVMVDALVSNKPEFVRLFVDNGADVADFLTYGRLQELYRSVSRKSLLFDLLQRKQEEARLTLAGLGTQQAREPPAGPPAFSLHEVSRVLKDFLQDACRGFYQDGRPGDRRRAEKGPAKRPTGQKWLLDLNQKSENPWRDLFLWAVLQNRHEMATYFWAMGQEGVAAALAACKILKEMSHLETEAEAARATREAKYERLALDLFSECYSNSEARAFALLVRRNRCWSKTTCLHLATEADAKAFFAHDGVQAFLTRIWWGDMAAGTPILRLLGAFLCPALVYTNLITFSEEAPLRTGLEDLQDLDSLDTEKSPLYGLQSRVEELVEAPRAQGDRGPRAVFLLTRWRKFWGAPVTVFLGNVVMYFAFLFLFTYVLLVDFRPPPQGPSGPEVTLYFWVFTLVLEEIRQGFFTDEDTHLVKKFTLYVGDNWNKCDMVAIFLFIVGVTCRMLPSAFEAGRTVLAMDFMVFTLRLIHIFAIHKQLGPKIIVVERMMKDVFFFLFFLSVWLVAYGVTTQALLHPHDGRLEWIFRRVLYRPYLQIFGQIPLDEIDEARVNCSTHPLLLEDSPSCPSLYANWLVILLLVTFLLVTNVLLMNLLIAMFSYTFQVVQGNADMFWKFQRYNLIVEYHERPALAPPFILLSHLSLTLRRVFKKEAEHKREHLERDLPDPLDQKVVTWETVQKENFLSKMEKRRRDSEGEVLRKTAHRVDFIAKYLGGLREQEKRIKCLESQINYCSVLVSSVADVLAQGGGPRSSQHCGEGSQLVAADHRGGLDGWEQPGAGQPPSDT
# [3] = target: T1, TRPM4; assay: Na+ influx screening assay
# [4] = target: TRPM4 A432T (Homo sapiens, UniProt Q8TD43, A432T); assay: Western blot of total and surface expression of TRPM4 A432T variant; details: 50 μM overnight, HEK293
# TRPM4 A432T, sequence (Q8TD43 whole entry A432T): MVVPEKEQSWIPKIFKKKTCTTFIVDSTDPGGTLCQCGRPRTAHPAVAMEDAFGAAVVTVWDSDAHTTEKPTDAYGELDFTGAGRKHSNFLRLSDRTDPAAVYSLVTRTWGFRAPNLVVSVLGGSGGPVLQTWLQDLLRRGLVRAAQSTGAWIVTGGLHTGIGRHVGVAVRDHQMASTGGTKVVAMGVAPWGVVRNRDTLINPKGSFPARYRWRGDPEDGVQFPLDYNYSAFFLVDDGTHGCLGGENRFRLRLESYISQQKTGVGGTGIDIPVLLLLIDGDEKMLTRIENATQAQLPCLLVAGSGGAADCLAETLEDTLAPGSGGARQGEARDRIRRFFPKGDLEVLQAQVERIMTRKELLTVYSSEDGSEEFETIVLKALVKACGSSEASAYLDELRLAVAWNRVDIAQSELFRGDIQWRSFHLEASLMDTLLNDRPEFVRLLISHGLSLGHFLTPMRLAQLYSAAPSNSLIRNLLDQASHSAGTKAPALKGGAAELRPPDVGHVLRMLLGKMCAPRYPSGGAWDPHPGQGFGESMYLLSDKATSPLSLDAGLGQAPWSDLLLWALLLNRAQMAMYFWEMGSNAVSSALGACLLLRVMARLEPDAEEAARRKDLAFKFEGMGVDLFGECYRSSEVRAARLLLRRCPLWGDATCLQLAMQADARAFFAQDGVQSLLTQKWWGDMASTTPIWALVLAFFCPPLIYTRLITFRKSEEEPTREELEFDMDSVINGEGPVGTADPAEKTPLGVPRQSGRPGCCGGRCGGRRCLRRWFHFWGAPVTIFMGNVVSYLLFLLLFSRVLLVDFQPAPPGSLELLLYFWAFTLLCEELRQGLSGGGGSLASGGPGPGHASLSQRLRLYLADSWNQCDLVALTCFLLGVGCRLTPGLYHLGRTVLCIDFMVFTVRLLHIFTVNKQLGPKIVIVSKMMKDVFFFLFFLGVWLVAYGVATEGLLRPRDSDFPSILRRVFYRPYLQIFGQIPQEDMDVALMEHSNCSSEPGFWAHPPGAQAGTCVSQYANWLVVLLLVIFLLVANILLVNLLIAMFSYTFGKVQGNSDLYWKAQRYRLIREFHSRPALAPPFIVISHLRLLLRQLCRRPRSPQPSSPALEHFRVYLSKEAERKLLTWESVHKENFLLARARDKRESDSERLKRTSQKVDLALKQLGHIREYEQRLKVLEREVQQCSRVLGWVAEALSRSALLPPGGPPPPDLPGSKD
# T1 sequence (Q8TD43 whole entry): as the sequence (Q8TD43 whole entry A432T) above, with T432A counted along it
smiles,measurement,setting,value
"Oc1cc2ccccc2c2ccccc12 [9-phenanthrol, reference compound]",IC50,[1],17 ± 2.8 µM
Cc1cc(Cl)ccc1OC(C)C(=O)Nc1cc(Cl)ccc1C(=O)O (stereo not shown) [Compound 4],effect on TRPM5 current,[2],variable potentiating effect
same,IC50,[1],1 ± 0.2 µM
same,inhibition of TRPM4 current on application to the cytosolic side,"[1]; 1 μM on cytosolic side of excised patches, washout",reversible inhibition
same,"inhibitory activity on TRPM4-mediated Na+ influx, hit confirmation","[3]; 5 μM, repurchased solid samples",confirmed their inhibitory activity
O=C(COc1ccccc1Cl)Nc1cc(Br)ccc1C(=O)O [Compound 11],IC50,[1],1.6 ± 0.5 µM
Cc1cc(Cl)ccc1OCC(=O)Nc1cc(Cl)ccc1C(=O)O [Compound 51],rescue of A432T total and surface expression,[4],did not restore the expression
same,TRPM4 inhibitory activity in words (SAR),"[3]; Na+ influx, Supporting Information Table S3 / text",no inhibitory activity
"O=C(O)c1ccccc1Nc1cccc(C(F)(F)F)c1 [FFA, flufenamic acid, reference compound]",IC50,[1],9.2 ± 1.2 µM
"O=P(c1ccccc1)(c1ccccc1)c1ccccc1 [TPPO, triphenylphosphine oxide, reference compound]",effect on TRPM5 current (positive control),[2]; 20 μM,inhibited TRPM5 current
